Source: US9938273B2 (Plexxikon Inc., priority 2015, dated 2018)

How the values were obtained:
[1] = target: T1, BA/F3-FLT3-ITD + D835Y cells (Homo sapiens, UniProt P36888, D835Y, cells depend on it, form not given); assay: Cell proliferation assay (CellTiter-Glo), engineered BA/F3 cells; type: cell-based, murine; settings: BaF3 FLT3 ITD/D835Y cells, 3d-Growth; read-out: BaF3_FLT3 ITD/D835Y 3d-Growth: IC50
T1 sequence (P36888 1-993 D835Y): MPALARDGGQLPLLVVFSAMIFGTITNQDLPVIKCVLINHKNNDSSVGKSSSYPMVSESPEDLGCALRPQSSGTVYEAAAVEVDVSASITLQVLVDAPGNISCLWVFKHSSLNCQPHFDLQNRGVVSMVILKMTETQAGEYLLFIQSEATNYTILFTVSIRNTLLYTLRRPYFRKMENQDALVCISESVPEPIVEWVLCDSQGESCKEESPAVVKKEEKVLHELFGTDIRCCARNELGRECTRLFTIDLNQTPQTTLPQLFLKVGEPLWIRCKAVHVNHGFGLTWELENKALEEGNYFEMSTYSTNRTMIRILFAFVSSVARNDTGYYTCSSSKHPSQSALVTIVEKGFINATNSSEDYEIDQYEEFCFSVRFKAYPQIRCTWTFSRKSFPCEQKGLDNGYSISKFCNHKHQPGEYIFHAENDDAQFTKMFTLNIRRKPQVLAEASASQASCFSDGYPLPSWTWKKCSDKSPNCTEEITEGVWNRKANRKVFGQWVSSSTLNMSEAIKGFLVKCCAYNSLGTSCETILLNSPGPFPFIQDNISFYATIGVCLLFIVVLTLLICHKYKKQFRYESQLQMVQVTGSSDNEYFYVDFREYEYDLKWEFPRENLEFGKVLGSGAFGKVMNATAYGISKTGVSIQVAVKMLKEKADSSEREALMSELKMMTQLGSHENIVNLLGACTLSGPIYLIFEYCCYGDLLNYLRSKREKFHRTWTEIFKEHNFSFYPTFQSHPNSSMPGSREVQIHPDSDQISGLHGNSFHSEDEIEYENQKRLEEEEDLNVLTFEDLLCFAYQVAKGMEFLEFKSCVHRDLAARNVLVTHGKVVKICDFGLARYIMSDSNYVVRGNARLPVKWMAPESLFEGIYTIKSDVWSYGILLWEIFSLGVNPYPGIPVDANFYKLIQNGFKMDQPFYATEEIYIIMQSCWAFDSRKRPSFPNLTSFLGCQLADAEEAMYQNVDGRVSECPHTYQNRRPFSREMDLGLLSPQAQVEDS
How it was run: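 Three-day growth at 37 °C, 5% CO2 under compound (1 μM top final, 1:3 dilutions, eight points, 0.2% DMSO), read as ATP luminescence by CellTiter-Glo for IC50. Cells: MOLM-14 with FLT3 ITD plus D835Y or F691L, and IL-3-deprived Ba/F3 transfected with FLT3 ITD/D835Y, 1×10^4 per well.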

c-KIT = target: T2, c-KIT (Homo sapiens, UniProt P10721); assay: AlphaScreen kinase assay with recombinant enzyme, c-KIT; type: biochemical; settings: 100ATP, 8pt, GMean
T2 construct: purchased Millipore 14-559K
T2 sequence (P10721 26-976): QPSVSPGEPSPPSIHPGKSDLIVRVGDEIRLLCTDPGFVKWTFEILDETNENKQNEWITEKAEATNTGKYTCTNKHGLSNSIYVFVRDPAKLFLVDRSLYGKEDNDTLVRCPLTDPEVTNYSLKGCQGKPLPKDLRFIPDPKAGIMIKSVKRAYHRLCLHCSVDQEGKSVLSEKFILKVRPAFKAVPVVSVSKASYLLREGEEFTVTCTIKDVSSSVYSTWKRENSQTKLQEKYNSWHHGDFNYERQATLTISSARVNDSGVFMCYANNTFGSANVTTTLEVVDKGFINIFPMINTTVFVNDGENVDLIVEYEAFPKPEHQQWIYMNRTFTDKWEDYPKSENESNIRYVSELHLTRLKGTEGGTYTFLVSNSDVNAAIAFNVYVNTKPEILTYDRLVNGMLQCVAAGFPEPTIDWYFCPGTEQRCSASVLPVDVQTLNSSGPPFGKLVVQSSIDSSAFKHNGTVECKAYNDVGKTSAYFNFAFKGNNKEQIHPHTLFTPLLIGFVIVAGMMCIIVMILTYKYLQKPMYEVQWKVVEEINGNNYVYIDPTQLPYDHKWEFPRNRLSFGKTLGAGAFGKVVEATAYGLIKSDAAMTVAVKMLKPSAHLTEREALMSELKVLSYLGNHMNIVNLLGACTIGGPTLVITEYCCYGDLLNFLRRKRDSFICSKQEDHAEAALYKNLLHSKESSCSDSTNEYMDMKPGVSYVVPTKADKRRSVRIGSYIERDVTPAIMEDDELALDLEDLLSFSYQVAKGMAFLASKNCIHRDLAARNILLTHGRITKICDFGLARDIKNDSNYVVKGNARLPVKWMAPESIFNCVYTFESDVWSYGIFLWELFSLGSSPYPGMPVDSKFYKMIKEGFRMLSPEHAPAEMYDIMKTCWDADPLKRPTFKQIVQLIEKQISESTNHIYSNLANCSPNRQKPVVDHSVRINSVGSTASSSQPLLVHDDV
How it was run: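 AlphaScreen, biotinylated poly(Glu4-Tyr) 30 nM final; PY20 anti-pTyr acceptor and streptavidin donor beads 10 μg/mL; IC50 final conc. 10 μM (FLT3-D835Y, FLT3-ITD) / 100 μM (c-KIT); detection incubations 20 + 60 min RT; 580 nm emission.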

SMILES | GI50 [1] [µM] | IC50 (c-KIT) [µM]
O=C(c1cccc(-c2cnc3[nH]c(-c4ccccc4)cc3c2)n1)N1CCC(N2CCOCC2)C1 (stereo not shown) [Compound P-0102, (3-morpholinopyrrolidin-1-yl)-[6-(2-phenyl-1H-pyrrolo[2,3-b]pyridin-5-yl)-2-pyridyl]methanone] | 0.0001 to 10 | 50 to 100
COC1CCN(C(=O)c2cccc(-c3cnc4[nH]c(-c5ccccc5)cc4c3)n2)CC1 [Compound P-0098, (4-methoxy-1-piperidyl)-[6-(2-phenyl-1H-pyrrolo[2,3-b]pyridin-5-yl)-2-pyridyl]methanone] | 0.0001 to 10 | 50 to 100
CC(=O)NC1CCN(C(=O)c2n[nH]c3ccc(-c4cnc5[nH]c(-c6ccccc6)cc5c4)cc23)CC1 [Compound P-0021, N-[1-[5-(2-phenyl-1H-pyrrolo[2,3-b]pyridin-5-yl)-1H-indazole-3-carbonyl]-4-piperidyl]acetamide] | 0.0001 to 10 | 50 to 100
C#Cc1cc2cc(-c3cccc(S(=O)(=O)NC4CC4)c3)cnc2[nH]1 [Compound P-0004, N-cyclopropyl-3-(2-ethynyl-1H-pyrrolo[2,3-b]pyridin-5-yl)benzenesulfonamide] | 0.0001 to 10 | 0.0001 to 10
N#CC1CCN(C(=O)c2cccc(-c3cnc4[nH]c(-c5ccc(F)cc5)cc4c3)n2)C1 (stereo not shown) [Compound P-0116, 1-[6-[2-(4-fluorophenyl)-1H-pyrrolo[2,3-b]pyridin-5-yl]pyridine-2-carbonyl]pyrrolidine-3-carbonitrile] | 0.0001 to 10 | 0.0001 to 10
CCOC(=O)C1CCN(C(=O)c2cccc(-c3cnc4[nH]c(-c5ccccc5)cc4c3)n2)CC1 [Compound P-0025, ethyl 1-[6-(2-phenyl-1H-pyrrolo[2,3-b]pyridin-5-yl)pyridine-2-carbonyl]piperidine-4-carboxylate] | 0.0001 to 10 | 0.0001 to 10
N[C@H]1CCN(C(=O)c2n[nH]c3ccc(-c4cnc5[nH]c(-c6ccccc6)cc5c4)cc23)C1 [Compound P-0016, [(3S)-3-aminopyrrolidin-1-yl]-[5-(2-phenyl-1H-pyrrolo[2,3-b]pyridin-5-yl)-1H-indazol-3-yl]methanone] | 0.0001 to 10 | 0.0001 to 10
NC(=O)Nc1ccc(-c2cnc3[nH]c(-c4ccccc4)cc3c2)cc1 [Compound P-0005, [4-(2-phenyl-1H-pyrrolo[2,3-b]pyridin-5-yl)phenyl]urea] | 0.0001 to 10 | 0.0001 to 10
CN[C@@H]1CCN(C(=O)c2cccc(-c3cnc4[nH]c(-c5ccccc5)cc4c3)n2)C1 [Compound P-0058, [(3R)-3-(methylamino)pyrrolidin-1-yl]-[6-(2-phenyl-1H-pyrrolo[2,3-b]pyridin-5-yl)-2-pyridyl]methanone] | 0.0001 to 10 | 0.0001 to 10
CNC1CCN(C(=O)c2cccc(-c3cnc4[nH]c(-c5cn(C)nc5C)cc4c3)n2)C1 (stereo not shown) [Compound P-0049, [6-[2-(1,3-dimethylpyrazol-4-yl)-1H-pyrrolo[2,3-b]pyridin-5-yl]-2-pyridyl]-[3-(methylamino)pyrrolidin-1-yl]methanone] | 0.0001 to 10 | 0.0001 to 10
N[C@H]1CCN(C(=O)c2cccc(-c3cnc4[nH]c(-c5ccccc5)cc4c3)n2)C1 [Compound P-0015, [(3S)-3-aminopyrrolidin-1-yl]-[6-(2-phenyl-1H-pyrrolo[2,3-b]pyridin-5-yl)-2-pyridyl]methanone] | 0.0001 to 10 | 0.0001 to 10
